Data published in article PMC5564600 (Oncotarget, 2017).
Read-outs that look alike come from different tables or passages of the source.

How the values were obtained:
Experiment in all cases: biochemical
Assay type in all cases: binding
panel of 442 kinases [1] = biological target: T1, panel of 442 kinases (Homo sapiens, UniProt O76039); conditions: CDKL5; for remaining activity at 1 µM: read-out: % of control at 1 µM
T1 construct: purchased Ambit Biosciences (scanMAXX KINOMEscan)
T1 sequence (O76039 1-960): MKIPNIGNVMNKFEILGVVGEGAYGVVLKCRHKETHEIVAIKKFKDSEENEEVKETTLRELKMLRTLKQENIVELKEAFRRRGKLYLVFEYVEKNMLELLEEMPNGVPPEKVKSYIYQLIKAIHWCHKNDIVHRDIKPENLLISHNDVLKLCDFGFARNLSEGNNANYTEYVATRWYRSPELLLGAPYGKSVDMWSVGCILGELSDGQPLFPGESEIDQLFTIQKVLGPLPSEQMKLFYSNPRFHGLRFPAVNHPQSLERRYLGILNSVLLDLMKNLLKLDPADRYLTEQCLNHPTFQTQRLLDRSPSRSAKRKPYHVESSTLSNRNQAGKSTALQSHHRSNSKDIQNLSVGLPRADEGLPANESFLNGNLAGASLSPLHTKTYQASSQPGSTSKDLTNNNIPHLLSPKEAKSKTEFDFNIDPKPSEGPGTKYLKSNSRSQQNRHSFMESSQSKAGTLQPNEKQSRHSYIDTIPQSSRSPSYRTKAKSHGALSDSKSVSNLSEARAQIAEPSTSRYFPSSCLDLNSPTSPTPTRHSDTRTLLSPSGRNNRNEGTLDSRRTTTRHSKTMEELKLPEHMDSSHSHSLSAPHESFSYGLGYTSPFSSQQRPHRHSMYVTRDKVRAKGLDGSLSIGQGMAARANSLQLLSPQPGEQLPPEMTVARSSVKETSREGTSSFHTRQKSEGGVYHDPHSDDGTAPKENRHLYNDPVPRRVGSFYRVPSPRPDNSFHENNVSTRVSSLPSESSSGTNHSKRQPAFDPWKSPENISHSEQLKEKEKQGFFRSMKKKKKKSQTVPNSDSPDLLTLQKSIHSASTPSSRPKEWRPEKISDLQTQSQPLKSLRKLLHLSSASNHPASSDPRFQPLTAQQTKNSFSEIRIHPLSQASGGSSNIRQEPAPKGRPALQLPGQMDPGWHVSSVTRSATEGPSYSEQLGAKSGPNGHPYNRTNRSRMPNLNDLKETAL

panel of 442 kinases [2] = biological target: T2, panel of 442 kinases (Homo sapiens, UniProt P11802); conditions: for remaining activity at 1 µM: read-out: % of control at 1 µM; for remaining activity at 10 µM: read-out: % of control at 10 µM
T2 construct: purchased Ambit Biosciences (scanMAXX KINOMEscan)
T2 sequence (P11802 whole entry): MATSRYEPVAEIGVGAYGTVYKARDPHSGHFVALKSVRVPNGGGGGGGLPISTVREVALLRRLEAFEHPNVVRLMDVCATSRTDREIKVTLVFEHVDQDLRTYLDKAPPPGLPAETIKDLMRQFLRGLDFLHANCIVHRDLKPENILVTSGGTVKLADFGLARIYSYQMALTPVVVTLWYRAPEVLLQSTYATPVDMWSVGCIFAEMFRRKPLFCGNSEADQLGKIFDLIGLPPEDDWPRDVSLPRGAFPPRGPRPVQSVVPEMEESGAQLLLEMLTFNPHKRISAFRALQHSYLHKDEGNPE

panel of 442 kinases [3] = biological target: T3, panel of 442 kinases (Homo sapiens, UniProt P15056, V600E); conditions: BRAF(V600E); for remaining activity at 1 µM: read-out: % of control at 1 µM
T3 construct: purchased Ambit Biosciences (scanMAXX KINOMEscan)
T3 sequence (P15056 whole entry V600E): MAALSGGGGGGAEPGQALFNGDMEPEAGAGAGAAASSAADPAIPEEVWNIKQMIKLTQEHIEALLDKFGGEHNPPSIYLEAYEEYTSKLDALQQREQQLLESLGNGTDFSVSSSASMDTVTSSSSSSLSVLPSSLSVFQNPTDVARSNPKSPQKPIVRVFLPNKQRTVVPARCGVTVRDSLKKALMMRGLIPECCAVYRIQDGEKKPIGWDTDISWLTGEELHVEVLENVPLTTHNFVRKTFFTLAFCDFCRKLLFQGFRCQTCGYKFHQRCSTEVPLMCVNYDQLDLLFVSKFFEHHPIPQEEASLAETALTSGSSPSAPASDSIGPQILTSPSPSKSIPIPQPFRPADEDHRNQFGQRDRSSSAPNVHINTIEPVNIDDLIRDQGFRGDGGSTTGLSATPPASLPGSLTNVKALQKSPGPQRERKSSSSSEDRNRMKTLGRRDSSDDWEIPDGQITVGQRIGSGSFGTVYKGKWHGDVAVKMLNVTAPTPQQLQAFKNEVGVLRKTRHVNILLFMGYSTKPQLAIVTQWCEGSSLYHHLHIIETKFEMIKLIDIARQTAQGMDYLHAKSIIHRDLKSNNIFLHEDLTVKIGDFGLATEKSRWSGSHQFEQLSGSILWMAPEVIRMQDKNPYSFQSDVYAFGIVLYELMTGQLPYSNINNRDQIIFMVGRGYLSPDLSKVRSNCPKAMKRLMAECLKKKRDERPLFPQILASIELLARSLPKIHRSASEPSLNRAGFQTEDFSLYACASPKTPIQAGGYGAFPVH

panel of 442 kinases [4] = biological target: T4, panel of 442 kinases (Homo sapiens, UniProt P24941); conditions: CDK2; for remaining activity at 1 µM: read-out: % of control at 1 µM
T4 construct: purchased Ambit Biosciences (scanMAXX KINOMEscan)

panel of 442 kinases [5] = biological target: T5, panel of 442 kinases (Homo sapiens, UniProt P49336); conditions: CDK8; for remaining activity at 1 µM: read-out: % of control at 1 µM
T5 construct: purchased Ambit Biosciences (scanMAXX KINOMEscan)
T5 sequence (P49336 whole entry): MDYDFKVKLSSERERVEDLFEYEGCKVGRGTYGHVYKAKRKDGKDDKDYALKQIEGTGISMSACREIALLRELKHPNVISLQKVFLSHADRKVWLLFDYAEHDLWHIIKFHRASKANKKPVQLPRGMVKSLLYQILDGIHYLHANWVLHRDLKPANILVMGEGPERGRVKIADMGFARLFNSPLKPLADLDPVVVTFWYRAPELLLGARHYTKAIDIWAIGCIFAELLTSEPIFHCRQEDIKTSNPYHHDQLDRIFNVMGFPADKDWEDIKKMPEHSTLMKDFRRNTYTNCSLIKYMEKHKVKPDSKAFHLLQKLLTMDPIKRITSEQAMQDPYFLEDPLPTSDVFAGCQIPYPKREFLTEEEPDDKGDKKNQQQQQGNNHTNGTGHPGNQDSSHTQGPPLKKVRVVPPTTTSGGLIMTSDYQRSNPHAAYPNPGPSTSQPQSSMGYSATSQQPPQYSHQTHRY

panel of 442 kinases [6] = biological target: T6, panel of 442 kinases (Homo sapiens, UniProt Q13705); conditions: ACVR2B; for remaining activity at 1 µM: read-out: % of control at 1 µM
T6 construct: purchased Ambit Biosciences (scanMAXX KINOMEscan)
T6 sequence (Q13705 19-512): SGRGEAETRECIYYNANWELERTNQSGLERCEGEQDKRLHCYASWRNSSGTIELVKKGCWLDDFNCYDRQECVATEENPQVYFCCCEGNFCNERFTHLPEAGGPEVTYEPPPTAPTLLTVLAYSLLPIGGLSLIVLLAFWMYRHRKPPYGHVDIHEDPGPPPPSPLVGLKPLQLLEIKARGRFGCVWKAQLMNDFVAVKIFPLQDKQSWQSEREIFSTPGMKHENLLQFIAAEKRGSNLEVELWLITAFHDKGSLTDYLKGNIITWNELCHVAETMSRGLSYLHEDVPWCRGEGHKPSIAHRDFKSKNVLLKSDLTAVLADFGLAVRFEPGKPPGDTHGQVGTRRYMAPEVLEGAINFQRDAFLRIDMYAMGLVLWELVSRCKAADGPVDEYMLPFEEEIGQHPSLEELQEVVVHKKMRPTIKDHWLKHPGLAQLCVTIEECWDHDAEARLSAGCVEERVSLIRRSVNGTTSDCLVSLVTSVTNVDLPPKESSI

panel of 442 kinases [7] = biological target: T7, panel of 442 kinases (Homo sapiens, UniProt Q7KZI7); conditions: kinase MARK2; for remaining activity at 1 µM: read-out: % of control at 1 µM
T7 construct: purchased Ambit Biosciences (scanMAXX KINOMEscan)
T7 sequence (Q7KZI7 whole entry): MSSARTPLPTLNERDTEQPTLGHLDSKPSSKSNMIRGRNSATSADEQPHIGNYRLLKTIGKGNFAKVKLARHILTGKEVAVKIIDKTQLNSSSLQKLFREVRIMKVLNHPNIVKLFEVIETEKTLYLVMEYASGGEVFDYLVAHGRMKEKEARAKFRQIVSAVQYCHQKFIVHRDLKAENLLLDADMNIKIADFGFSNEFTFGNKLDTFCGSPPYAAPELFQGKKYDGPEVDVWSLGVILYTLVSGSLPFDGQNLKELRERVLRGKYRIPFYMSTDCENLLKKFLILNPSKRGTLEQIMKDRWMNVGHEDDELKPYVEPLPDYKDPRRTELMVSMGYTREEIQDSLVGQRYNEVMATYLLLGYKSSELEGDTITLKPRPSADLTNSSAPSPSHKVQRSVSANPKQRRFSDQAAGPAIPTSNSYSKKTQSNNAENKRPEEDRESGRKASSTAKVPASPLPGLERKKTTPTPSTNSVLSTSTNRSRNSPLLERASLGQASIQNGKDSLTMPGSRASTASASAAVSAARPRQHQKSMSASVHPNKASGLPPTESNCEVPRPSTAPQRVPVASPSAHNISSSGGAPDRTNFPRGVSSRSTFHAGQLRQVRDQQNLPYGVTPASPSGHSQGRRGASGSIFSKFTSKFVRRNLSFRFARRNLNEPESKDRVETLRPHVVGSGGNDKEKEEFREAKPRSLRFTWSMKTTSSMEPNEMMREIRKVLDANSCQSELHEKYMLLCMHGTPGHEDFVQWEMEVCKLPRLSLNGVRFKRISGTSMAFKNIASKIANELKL

panel of 442 kinases [8] = biological target: T8, panel of 442 kinases (Homo sapiens, UniProt Q86UE8); conditions: kinase TLK2; for remaining activity at 1 µM: read-out: TLK2 (% of control at 1 µM)
T8 construct: purchased Ambit Biosciences (scanMAXX KINOMEscan)
T8 sequence (Q86UE8 whole entry): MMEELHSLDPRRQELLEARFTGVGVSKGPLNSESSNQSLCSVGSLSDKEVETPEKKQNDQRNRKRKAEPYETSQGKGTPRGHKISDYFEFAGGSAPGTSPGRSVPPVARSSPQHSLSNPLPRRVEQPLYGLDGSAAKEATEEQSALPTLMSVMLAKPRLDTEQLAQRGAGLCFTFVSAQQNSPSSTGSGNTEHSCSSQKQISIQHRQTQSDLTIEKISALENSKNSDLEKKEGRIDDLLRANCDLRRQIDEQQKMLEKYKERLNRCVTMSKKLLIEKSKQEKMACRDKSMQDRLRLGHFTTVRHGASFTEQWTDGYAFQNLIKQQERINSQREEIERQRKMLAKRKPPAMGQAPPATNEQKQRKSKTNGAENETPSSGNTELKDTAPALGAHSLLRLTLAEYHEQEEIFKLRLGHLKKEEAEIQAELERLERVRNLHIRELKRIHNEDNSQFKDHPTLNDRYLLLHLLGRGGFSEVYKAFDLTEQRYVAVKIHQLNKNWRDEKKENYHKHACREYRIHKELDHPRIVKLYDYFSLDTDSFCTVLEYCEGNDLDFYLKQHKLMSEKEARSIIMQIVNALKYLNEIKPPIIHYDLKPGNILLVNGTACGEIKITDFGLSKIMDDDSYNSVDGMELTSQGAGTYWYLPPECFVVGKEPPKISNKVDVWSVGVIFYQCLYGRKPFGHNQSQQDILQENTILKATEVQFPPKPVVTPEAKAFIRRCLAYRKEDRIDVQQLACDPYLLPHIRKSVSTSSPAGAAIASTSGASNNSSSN

panel of 442 kinases [9] = biological target: T9, panel of 442 kinases (Homo sapiens, UniProt Q8TBX8); conditions: kinase PIP5K2C; for remaining activity at 1 µM: read-out: % of control at 1 µM
T9 construct: purchased Ambit Biosciences (scanMAXX KINOMEscan)
T9 sequence (Q8TBX8 1-421): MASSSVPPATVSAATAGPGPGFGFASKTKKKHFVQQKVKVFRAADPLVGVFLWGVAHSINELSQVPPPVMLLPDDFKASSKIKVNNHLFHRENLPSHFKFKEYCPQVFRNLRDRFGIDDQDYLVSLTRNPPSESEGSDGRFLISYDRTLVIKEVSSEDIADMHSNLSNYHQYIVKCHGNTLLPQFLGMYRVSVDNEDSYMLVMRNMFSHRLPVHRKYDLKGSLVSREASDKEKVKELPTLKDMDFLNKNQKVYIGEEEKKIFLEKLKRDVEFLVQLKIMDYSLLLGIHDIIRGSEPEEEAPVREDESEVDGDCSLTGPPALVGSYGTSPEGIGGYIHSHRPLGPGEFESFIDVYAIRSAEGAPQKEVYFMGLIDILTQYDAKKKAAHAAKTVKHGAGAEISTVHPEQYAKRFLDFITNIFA

panel of 442 kinases [10] = biological target: T10, panel of 442 kinases (Homo sapiens, UniProt Q92630); conditions: DYRK2; for remaining activity at 1 µM: read-out: % of control at 1 µM
T10 construct: purchased Ambit Biosciences (scanMAXX KINOMEscan)
T10 sequence (Q92630 1-601): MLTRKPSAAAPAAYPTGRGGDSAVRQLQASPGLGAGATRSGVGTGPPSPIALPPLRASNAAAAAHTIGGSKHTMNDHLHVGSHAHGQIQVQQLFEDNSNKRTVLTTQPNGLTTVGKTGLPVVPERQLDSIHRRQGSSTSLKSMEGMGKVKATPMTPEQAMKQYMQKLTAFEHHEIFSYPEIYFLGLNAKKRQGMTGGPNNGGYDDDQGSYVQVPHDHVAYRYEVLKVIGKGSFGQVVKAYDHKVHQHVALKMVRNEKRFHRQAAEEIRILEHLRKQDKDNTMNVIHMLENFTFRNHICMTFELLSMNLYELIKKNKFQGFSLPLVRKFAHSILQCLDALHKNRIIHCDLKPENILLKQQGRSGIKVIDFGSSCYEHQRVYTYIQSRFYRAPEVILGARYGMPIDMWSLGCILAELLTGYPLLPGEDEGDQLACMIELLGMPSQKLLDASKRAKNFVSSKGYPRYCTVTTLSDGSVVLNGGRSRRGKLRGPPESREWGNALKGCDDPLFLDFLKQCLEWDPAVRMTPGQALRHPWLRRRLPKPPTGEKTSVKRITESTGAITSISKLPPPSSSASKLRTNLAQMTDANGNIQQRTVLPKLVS

panel of 442 kinases [11] = biological target: T11, panel of 442 kinases (Homo sapiens, UniProt Q9UK32)
T11 construct: purchased Ambit Biosciences (scanMAXX KINOMEscan)
T11 sequence (Q9UK32 whole entry): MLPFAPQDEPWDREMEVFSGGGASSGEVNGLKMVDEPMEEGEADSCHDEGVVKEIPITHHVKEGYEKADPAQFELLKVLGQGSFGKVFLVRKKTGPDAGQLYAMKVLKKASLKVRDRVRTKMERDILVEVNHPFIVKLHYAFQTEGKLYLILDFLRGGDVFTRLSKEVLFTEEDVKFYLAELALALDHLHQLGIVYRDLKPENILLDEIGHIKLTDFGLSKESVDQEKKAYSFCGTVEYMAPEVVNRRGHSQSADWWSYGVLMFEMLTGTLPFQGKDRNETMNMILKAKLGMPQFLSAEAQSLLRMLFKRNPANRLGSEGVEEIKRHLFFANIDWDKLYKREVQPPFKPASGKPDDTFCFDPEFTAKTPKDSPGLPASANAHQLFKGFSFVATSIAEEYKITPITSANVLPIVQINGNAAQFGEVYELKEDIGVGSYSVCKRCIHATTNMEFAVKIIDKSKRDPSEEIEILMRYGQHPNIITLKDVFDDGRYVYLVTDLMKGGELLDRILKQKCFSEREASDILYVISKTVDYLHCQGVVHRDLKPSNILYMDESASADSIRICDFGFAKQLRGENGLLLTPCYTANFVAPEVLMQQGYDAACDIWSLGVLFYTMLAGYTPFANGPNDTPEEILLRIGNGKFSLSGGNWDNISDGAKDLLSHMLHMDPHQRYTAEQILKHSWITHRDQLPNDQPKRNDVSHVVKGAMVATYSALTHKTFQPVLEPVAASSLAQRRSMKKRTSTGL

[12] = 10 µM, read-out: % of control at 10 µM
[13] = kinase RSK4(Kin.Dom.1-N-terminal), read-out: RSK4(Kin.Dom.1-N-terminal) (% of control at 1 µM)
[14] = kinase RSK4(Kin.Dom.2-C-terminal), read-out: RSK4(Kin.Dom.2-C-terminal) (% of control at 1 µM)

| Compound | remaining activity at 1 µM (panel of 442 kinases [1]) [%] | remaining activity at 1 µM (panel of 442 kinases [2]; CDK4-cyclinD1) [%] | remaining activity at 1 µM (panel of 442 kinases [2]; CDK4-cyclinD3) [%] | remaining activity at 1 µM (panel of 442 kinases [3]) [%] | remaining activity at 1 µM (panel of 442 kinases [4]) [%] | remaining activity at 1 µM (panel of 442 kinases [5]) [%] | remaining activity at 1 µM (panel of 442 kinases [6]) [%] | remaining activity at 1 µM (panel of 442 kinases [7]) [%] | remaining activity at 1 µM (panel of 442 kinases [8]) [%] | remaining activity at 1 µM (panel of 442 kinases [9]) [%] | remaining activity at 1 µM (panel of 442 kinases [10]) [%] | remaining activity at 1 µM (panel of 442 kinases [11]; [13]) [%] | remaining activity at 1 µM (panel of 442 kinases [11]; [14]) [%] | other results |
| --- | --- | --- | --- | --- | --- | --- | --- | --- | --- | --- | --- | --- | --- | --- |
| Nc1cc(C(F)(F)F)c(-c2cc(N3CCOCC3)nc(N3CCOCC3)n2)cn1 [Buparlisib] | 88 | 82 | 91 | 74 | 84 | 100 | 100 | 100 | 100 | 71 | 80 | 99 | 100 | remaining activity at 10 µM (panel of 442 kinases [1]; [12]): 100%; remaining activity at 10 µM (panel of 442 kinases [2]; CDK4-cyclinD1): 100%; remaining activity at 10 µM (panel of 442 kinases [2]; CDK4-cyclinD3): 100%; remaining activity at 10 µM (panel of 442 kinases [3]; [12]): 44%; remaining activity at 10 µM (panel of 442 kinases [4]; [12]): 100%; remaining activity at 10 µM (panel of 442 kinases [5]; [12]): 100%; remaining activity at 10 µM (panel of 442 kinases [6]; [12]): 100%; remaining activity at 10 µM (panel of 442 kinases [7]; [12]): 71%; remaining activity at 10 µM (panel of 442 kinases [8]; 10 µM, read-out: TLK2 (% of control at 10 µM)): 100%; remaining activity at 10 µM (panel of 442 kinases [9]; [12]): 46%; remaining activity at 10 µM (panel of 442 kinases [10]; [12]): 100%; remaining activity at 10 µM (panel of 442 kinases [11]; kinase RSK4(Kin.Dom.1-N-terminal), read-out: RSK4(Kin.Dom.1-N-terminal) (% of control at 10 µM)): 100%; remaining activity at 10 µM (panel of 442 kinases [11]; kinase RSK4(Kin.Dom.2-C-terminal), read-out: RSK4(Kin.Dom.2-C-terminal) (% of control at 10 µM)): 100% |
| Cn1c(=O)n(-c2ccc(C(C)(C)C#N)cc2)c2c3cc(-c4cnc5ccccc5c4)ccc3ncc21 [Dactolisib, 2-methyl-2-[4-(3-methyl-2-oxo-8-quinolin-3-yl-2,3-dihydroimidazo[4,5-c]quinolin-1-yl)-phenyl] propionitrile] | 100 | 100 | 97 | 82 | 78 | 100 | 85 | 65 | 93 | 89 | 67 | 71 | 82 | – |
| COc1ncc(-c2ccc3nccc(-c4ccnnc4)c3c2)cc1NS(=O)(=O)c1ccc(F)cc1F [Omipalisib] | 100 | 100 | 100 | – | 100 | 70 | 100 | 100 | 100 | 56 | 88 | 88 | 79 | – |
| FC(F)c1nc2ccccc2n1-c1nc(N2CCOCC2)nc(N2CCOCC2)n1 [ZSTK474, 2-(difluoromethyl)-1-[4,6-di(4-morpholinyl)-1,3,5-triazin-2-yl]-1H-benzimidazole] | 100 | 90 | 100 | 56 | 74 | 80 | 89 | 57 | 100 | 100 | 78 | 81 | 91 | – |
